# Results published in ChEMBL document CHEMBL2169830, “Identification, synthesis, and biological evaluation of the metabolites of 3-amino-6-(3'-aminopropyl)-5H-indeno[1,2-c]isoquinoline-5,11-(6H)dione (AM6-36), a promising rexinoid lead compound for the development of cancer chemotherapeutic and chemopreventive agents” (J Med Chem, 2012).
# What was measured:
# [1] = Cytotoxicity against african green monkey COS1 cells assessed as cell survival at 40 uM relative to control; assay type: cell-based; conditions: chlorocebus aethiops, COS-1 cells; read-out: Survival
# HEK293 [2] = assay: Inhibition of TNFalpha-induced human NFkappaB activity in HEK293 cells at 50 uM incubated for 6 hrs followed by compound wash out measured after 5 mins by luciferase assay; assay type: cell-based
# [3] = Cytotoxicity against human HEK293 cells assessed as cell survival at 50 uM relative to control; assay type: cell-based; conditions: read-out: Survival
# [4] = Cytotoxicity against african green monkey COS1 cells assessed as cell survival at 50 uM relative to control; assay type: cell-based; conditions: chlorocebus aethiops, COS-1 cells; read-out: Survival
# [5] = Inhibition of TNFalpha-induced human NFkappaB activity in HEK293 cells incubated for 6 hrs followed by compound wash out measured after 5 mins by luciferase assay; assay type: cell-based
# [6] = biological target: T1, Retinoic acid receptor RXR-alpha (Homo sapiens) (UniProt P19793); assay: Agonist activity at human RXRalpha expressed in african green monkey COS1 cells assessed as induction of RXRE transcriptional activity at 12.5 uM after 12 hrs by luciferase reporter gene assay relative to control; assay type: functional, cell-based; conditions: COS-1
# T1 sequence (whole entry): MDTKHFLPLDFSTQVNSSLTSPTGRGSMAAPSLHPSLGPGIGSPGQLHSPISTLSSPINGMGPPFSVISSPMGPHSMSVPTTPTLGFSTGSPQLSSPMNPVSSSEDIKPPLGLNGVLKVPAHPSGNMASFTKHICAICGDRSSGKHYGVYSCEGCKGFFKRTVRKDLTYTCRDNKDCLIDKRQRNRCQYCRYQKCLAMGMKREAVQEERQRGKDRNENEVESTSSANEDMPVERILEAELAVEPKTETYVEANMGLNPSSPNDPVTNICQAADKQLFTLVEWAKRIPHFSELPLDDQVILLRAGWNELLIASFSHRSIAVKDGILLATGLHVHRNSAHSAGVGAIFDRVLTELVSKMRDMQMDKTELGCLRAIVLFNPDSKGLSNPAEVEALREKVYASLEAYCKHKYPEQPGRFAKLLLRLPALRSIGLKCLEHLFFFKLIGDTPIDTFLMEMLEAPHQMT
# [7] = biological target: T2, Retinoic acid receptor RXR-alpha (Homo sapiens, UniProt P19793); assay: Agonist activity at human RXRalpha expressed in african green monkey COS1 cells assessed as induction of RXRE transcriptional activity after 12 hrs by luciferase reporter gene assay; assay type: functional, cell-based, COS-1
# T2 sequence (P19793 whole entry): T1 sequence (whole entry)
# HEK293 [8] = assay: Cytotoxicity against human HEK293 cells; assay type: cell-based
smiles,measurement,setting,value
O=C1c2ccccc2-c2c1c1ccc([N+](=O)[O-])cc1c(=O)n2CCCBr,viability at 40 µM,[1],100%
same,inhibition,HEK293 [2],21.8%
same,viability at 50 µM,[3],118%
CC(C)(C)OC(=O)NCCCn1c2c(c3ccc([N+](=O)[O-])cc3c1=O)C(=O)c1ccccc1-2,viability at 50 µM,[4],106%
same,inhibition,HEK293 [2],0%
same,viability at 50 µM,[3],101%
O=C1c2ccccc2-c2c1c1ccc([N+](=O)[O-])cc1c(=O)n2CCCO,viability at 50 µM,[4],91.4%
same,inhibition,HEK293 [2],72.8%
same,IC50,[5],7.3 µM
same,viability at 50 µM,[3],114%
Cc1ccc(S(=O)(=O)N[C@@H](Cc2ccccc2)C(=O)CCl)cc1 [TPCK],IC50,[5],5.1 µM
CNCCCn1c2c(c3ccc(N)cc3c1=O)C(=O)c1ccccc1-2,viability at 50 µM,[4],64.5%
same,inhibition,HEK293 [2],63.1%
same,fold change (FC),[6],8.97
same,IC50,[5],39.8 µM
same,viability at 50 µM,[3],117%
CNCCCn1c2c(c3ccc(N)cc3c1=O)C(O)c1ccccc1-2 (stereo not drawn),viability at 50 µM,[4],84.1%
same,inhibition,HEK293 [2],83.7%
same,IC50,[5],0.6 µM
same,viability at 50 µM,[3],90.1%
CN(C)c1ccc2c3c(n(CCCN)c(=O)c2c1)-c1ccccc1C3=O,viability at 50 µM,[4],< 50%
same,inhibition,HEK293 [2],86.3%
same,IC50,[5],32.3 µM
same,viability at 50 µM,[3],110%
CC(=O)Nc1ccc2c3c(n(CCCN=[N+]=[N-])c(=O)c2c1)-c1ccccc1C3=O,viability at 50 µM,[4],93.1%
same,inhibition,HEK293 [2],0%
same,viability at 50 µM,[3],115%
CC(C)(C)OC(=O)NCCCn1c2c(c3ccc(N)cc3c1=O)C(=O)c1ccccc1-2,viability at 50 µM,[4],104%
same,inhibition,HEK293 [2],0%
same,viability at 50 µM,[3],107%
CC(=O)Nc1ccc2c3c(n(CCCN)c(=O)c2c1)-c1ccccc1C3=O,viability at 50 µM,[4],74.5%
same,EC50,[7],> 41.4 µM
same,inhibition,HEK293 [2],0%
same,fold change (FC),[6],3.55
same,viability at 50 µM,[3],122%
CC(=O)NCCCn1c2c(c3ccc([N+](=O)[O-])cc3c1=O)C(=O)c1ccccc1-2,viability at 50 µM,[4],99.4%
same,inhibition,HEK293 [2],87.4%
same,IC50,[5],38.8 µM
same,viability at 50 µM,[3],69.1%
CC(=O)Nc1ccc2c3c(n(CCCN)c(=O)c2c1)-c1ccccc1C3O (stereo not drawn),viability at 50 µM,[4],83.7%
same,inhibition,HEK293 [2],0%
same,viability at 50 µM,[3],99.2%
CC(=O)NCCCn1c2c(c3ccc(N)cc3c1=O)C(=O)c1ccccc1-2,viability at 50 µM,[4],75.2%
same,EC50,[7],20.9 µM
same,inhibition,HEK293 [2],81.8%
same,fold change (FC),[6],3.52
same,IC50,[5],14.4 µM
same,viability at 50 µM,[3],106%
CC(=O)Nc1ccc2c3c(n(CCCO)c(=O)c2c1)-c1ccccc1C3=O,viability at 50 µM,[4],90.6%
same,inhibition,HEK293 [2],53.9%
same,viability at 50 µM,[3],128%
NCCCn1c2c(c3ccc([N+](=O)[O-])cc3c1=O)C(=O)c1ccccc1-2,viability at 50 µM,[4],< 50%
same,IC50,HEK293 [8],16.9 µM
same,inhibition,HEK293 [2],80.8%
same,IC50,[5],2.6 µM
same,viability at 50 µM,[3],< 50%
CNc1ccc2c3c(n(CCCNC(=O)OC(C)(C)C)c(=O)c2c1)-c1ccccc1C3=O,viability at 50 µM,[4],94.8%
same,inhibition,HEK293 [2],53.9%
same,viability at 50 µM,[3],68.6%
CNc1ccc2c3c(n(CCCNC(=O)OC(C)(C)C)c(=O)c2c1)-c1ccccc1C3O (stereo not drawn),viability at 50 µM,[4],67.5%
same,inhibition,HEK293 [2],83.4%
same,IC50,[5],0.4 µM
same,viability at 50 µM,[3],90.1%
CN(C)c1ccc2c3c(n(CCCNC(=O)OC(C)(C)C)c(=O)c2c1)-c1ccccc1C3=O,viability at 50 µM,[4],102%
same,inhibition,HEK293 [2],25.9%
same,viability at 50 µM,[3],97.6%
NCCCn1c2c(c3ccc(N)cc3c1=O)C(O)c1ccccc1-2 (stereo not drawn),viability at 50 µM,[4],87.5%
same,inhibition,HEK293 [2],53.1%
same,viability at 50 µM,[3],< 50%
C=C(c1ccc(C(=O)O)cc1)c1cc2c(cc1C)C(C)(C)CCC2(C)C [BEXAROTENE],viability at 40 µM,[1],74.5%
CNc1ccc2c3c(n(CCCN)c(=O)c2c1)-c1ccccc1C3=O,viability at 50 µM,[4],< 50%
same,inhibition,HEK293 [2],0%
same,fold change (FC),[6],6.09
same,viability at 50 µM,[3],99.4%
Nc1ccc2c3c(n(CCCCl)c(=O)c2c1)-c1ccccc1C3=O,viability at 50 µM,[4],102%
same,inhibition,HEK293 [2],0%
same,viability at 50 µM,[3],91.4%
Nc1ccc2c3c(n(CCCO)c(=O)c2c1)-c1ccccc1C3=O,viability at 50 µM,[4],85.9%
same,inhibition,HEK293 [2],53.2%
same,viability at 50 µM,[3],116%
CNCCCn1c2c(c3ccc([N+](=O)[O-])cc3c1=O)C(=O)c1ccccc1-2,viability at 50 µM,[4],< 50%
same,inhibition,HEK293 [2],92.4%
same,IC50,[5],3.7 µM
same,viability at 50 µM,[3],79.7%
Cc1ccc(S(=O)(=O)/C=C/C#N)cc1,IC50,[5],2.01 µM
Nc1ccc2c3c(n(CCCO)c(=O)c2c1)-c1ccccc1C3O (stereo not drawn),viability at 50 µM,[4],86.9%
same,inhibition,HEK293 [2],57.8%
same,IC50,[5],49.3 µM
same,viability at 50 µM,[3],118%
CNc1ccc2c3c(n(CCCN)c(=O)c2c1)-c1ccccc1C3O (stereo not drawn),viability at 50 µM,[4],63.6%
same,inhibition,HEK293 [2],69.2%
same,IC50,[5],0.7 µM
same,viability at 50 µM,[3],95%
